Results on three molecules are retold here after US20080153819A1, “METHODS FOR TREATING MACULAR EDEMA AND PATHOLOGIC OCULAR ANGIOGENESIS USING A NEUROPROTECTIVE AGENT AND A RECEPTOR TYROSINE KINASE INHIBITOR” (priority 2006, published 2008).

The test system of series [1] is laser-induced choroidal neovascularization (CNV). Put plainly: Laser-induced choroidal neovascularization (CNV) in the mouse, prevention, intravitreal injection. Format: in vivo. Here is the method: (§1) METHODS: CNV was generated by laser-induced rupture of Bruch's membrane. Briefly, 4 to 5 week old male C57BL/6J mice were anesthetized using intraperitoneal administration of ketamine hydrochloride (100 mg/kg) and xylazine (5 mg/kg) and the pupils of both eyes dilated with topical ocular instillation of 1% tropicamide and 2.5% Mydfin®. One drop of topical cellulose (Gonioscopic®) was used to lubricate the cornea. A hand-held cover slip was applied to the cornea and used as a contact lens to aid visualization of the fundus. Three to four retinal burns were placed in randomly assigned eye (right or left eye for each mouse) using the Alcon 532 nm EyeLite laser with a slit lamp delivery system. The laser burns were used to generate a rupture in Bruch's membrane, which was indicated opthalmoscopically by the formation of a bubble under the retina. Only mice with laser burns that produced three bubbles per eye were included in the study. Burns were typically placed at the 3, 6, 9 or 12 o'clock positions in the posterior pole of the retina, avoiding the branch retinal arteries and veins.
Each mouse was randomly assigned into one of the following treatment groups: noninjected controls, sham-injected controls, vehicle-injected mice, or one of three RTKi-injected groups. […]

In series [2] the test system is preretinal neovascularization (NV). Put plainly: Rat model of oxygen-induced retinopathy (OIR), single intravitreal injection. Format: in vivo. As to conditions: for % Inhibition (vs. vehicle-injected eye) of preretinal NV / Median NV (clockhour score): 5 μl intravitreal injection; for % Inhibition (vs. vehicle-injected eye) of preretinal NV: Day 14/6. The text has this:
METHODS: Pregnant Sprague-Dawley rats were received at 14 days gestation and subsequently gave birth on Day 22±1 of gestation. Immediately following parturition, pups were pooled and randomized into separate litters (n=17 pups/litter), placed into separate shoebox cages inside oxygen delivery chamber, and subjected to an oxygen-exposure profile from Day 0-14 postpartum. Litters were then placed into room air from Day 14/0 through Day 14/6 (days 14-20 postpartum). Additionally on Day 14/0, each pup was randomly assigned as an oxygen-exposed control or into various treatment groups. For those randomized into an injection treatment group: one eye received a 5 μl intravitreal injection of 0.1%, 0.3%, 0.6%, or 1% RTKi and the contralateral eye received a 5 μl intravitreal injection of vehicle. At Day 14/6 (20 days postpartum), all animals in both studies were euthanized. Immediately following euthanasia, retinas from all rat pups were harvested, fixed in 10% neutral buffered formalin for 24 hours, subjected to ADPase staining, and fixed onto slides as whole mounts. Digital images were acquired from each retinal flat mount that was adequately prepared. Computerized image analysis was used to obtain a NV clockhour score from each readable sample. Each clockhour out of 12 total per retina was assessed for the presence or absence of preretinal NV. Statistical comparisons using median scores for NV clockhours from each treatment group were utilized in nonparametric analyses. Each noninjected pup represented one NV score by taking the average value of both eyes and was used in comparisons against each dosage group. Because the pups were randomly assigned and no difference was observed between oxygen-exposed control pups from all litters, the NV scores were combined for all treatment groups. P≦0.05 was considered statistically significant.

Series [3] deals with laser-induced choroidal neovascularization (CNV). Nature of the series: Laser-induced CNV in the mouse, oral gavage, prevention paradigm. The series is classed as in vivo.
Series [4] relates to preretinal neovascularization (NV). Nature of the series: Rat OIR model, oral gavage. Format: in vivo. Here is the method: Immediately following euthanasia, retinas from all rat pups were harvested, fixed in 10% neutral buffered formalin for 24 hours, subjected to ADPase staining, and fixed onto slides as whole mounts. Digital images were acquired from each retinal flat mount that was adequately prepared. Computerized image analysis was used to obtain a NV clockhour score from each readable sample. Each clockhour out of 12 total per retina was assessed for the presence or absence of preretinal NV. Statistical comparisons using median scores for NV clockhours from each treatment group were utilized in nonparametric analyses. Each noninjected pup represented one NV score by taking the average value of both eyes and was used in comparisons against each dosage group. Because the pups were randomly assigned and no difference was observed between oxygen-exposed control pups from all litters, the NV scores were combined for all treatment groups. P≦0.05 was considered statistically significant. METHODS: Pregnant Sprague-Dawley rats were received at 14 days gestation and subsequently gave birth on Day 22±1 of gestation. Immediately following parturition, pups were pooled and randomized into separate litters (n=17 pups/litter), placed into separate shoebox cages inside oxygen delivery chamber, and subjected to an oxygen-exposure profile from Day 0 to Day 14 postpartum. Litters were then placed into room air from Day 14/0 through Day 14/6 (days 14-20 postpartum). Additionally on Day 14/0, each pup was randomly assigned as oxygen-exposed controls, vehicle treated, or drug-treated at 1.5, 5, 10 mg/kg, p.o., BID. At Day 14/6 (20 days postpartum), all animals in both studies were euthanized and retina whole mounts were prepared as described in Example 1 above.

Series [5] relates to existing laser-induced choroidal neovascularization (CNV). Put plainly: Regression of existing laser-induced CNV in the mouse, intravitreal injection at 7 days post-laser. Format: in vivo. As to the method: as §1, with “veins. […]” for “veins.”
METHODS: CNV was generated by laser-induced rupture of Bruch's membrane as described above in Example 3. […] Choroidal flat mounts were analyzed as described above in Example 3.

For series [6] the test system is unchanged. Nature of the series: Laser-induced CNV in the mouse, oral gavage, regression paradigm. Format: in vivo. The settings on record: 3 mg/kg/day p.o. from day 7 after laser.
Series [7] relates to diabetes-induced retinal vascular permeability. Nature of the series: Diabetes-induced retinal vascular permeability in the STZ rat model, oral gavage. Format: in vivo. As to the method: METHODS: Diabetes was induced in male Long-Evans rats with 65 mg/kg streptozotocin (STZ) after an overnight fast. Upon confirmation of diabetes (blood glucose >250 mg/dl), treatment was initiated by oral gavage. Non-diabetic (NDM) and diabetic (DM) rats received oral gavage of either vehicle or RTK inhibitor at 1.5 or 5 mg/kg/d BID. After 2 weeks, jugular vein catheters were implanted 1 day prior to experimentation for the infusion of indicator dye. Retinal vascular permeability, RVP, was measured using Evan's blue albumin permeation (45 mg/kg) after a 2 hour circulation period.

The test system of another series is diabetic macular edema. The settings on record: topical ocular administration, Japanese patients with diabetic macular edema; cited from earlier work.
The next series deals with exudative AMD. As to conditions: Phase III, patients treated, at 24 months, up to; cited from earlier work.

As to `Cc1ccc(F)c(NC(=O)Nc2ccc(-c3cccc4[nH]nc(N)c34)cc2)c1` [Compound 86, N-[4-[3-amino-1H-indazol-4-yl]phenyl]-N′-(2-fluoro-5-methylphenyl)urea], the “difference in CNV versus vehicle injected eyes (in words)” value in series [1] (0.3% RTKi, 5 ul intravitreal) is listed as “marginal statistical difference”. Besides, the “effect on laser-induced CNV (in words, FIG. 3)” value in [1] (single intravitreal injection) is “inhibits laser-induced choroidal neovascularization (CNV)”. Besides, the “% Inhibition (vs. vehicle-injected eye) of preretinal NV” value was determined as 37% in [2] (0.1% RTKi), 100% in series [2] (0.3% RTKi), 100% in series [2] (0.6% RTKi) and 100% in series [2] (1% RTKi). Moreover, the “efficacy against preretinal NV (in words)” value in [2] (0.1% treated eyes, intravitreal) is recorded as “Efficacy was not observed”. The “Median NV (clockhour score)” value in [2] (0.3% RTKi) was 0; in series [2] (0.6% RTKi), 0; in series [2] (1% RTKi), 0; in [4] (3 mg/kg RTKi in PEG 400, p.o.) it was 7.5; in [4] (20 mg/kg RTKi in PEG 400, p.o.) it was 0. Further, the “effect on preretinal NV (in words, FIG. 1)” value in series [2] (single intravitreal injection) is recorded as “inhibits preretinal neovascularization (NV)”. The “inhibition of CNV (in words)” value in series [3] (20 mg/kg/d p.o., prevention paradigm) was “complete inhibition of CNV”. For the same molecule, in [3] (oral gavage), the “effect on laser-induced CNV (in words, FIG. 6)” value is “inhibits laser-induced choroidal neovascularization (CNV)”. The “% Inhibition (vs vehicle-injected eye) of preretinal NV” value in series [4] (3 mg/kg RTKi in PEG 400, p.o.) was −1.4%; in series [4] (20 mg/kg RTKi in PEG 400, p.o.), 100%. The “decrease in NV (in words)” value in series [4] (3 mg/kg/day p.o.) is “did not have a significant decrease in NV”. Further, the “inhibition of preretinal NV (in words)” value in series [4] (20 mg/kg/day p.o.) is on record as “complete inhibition of preretinal NV”. Moreover, the “effect on preretinal NV (in words, FIG. 2)” value in series [4] (oral gavage) is listed as “prevents preretinal neovascularization (NV)”. In series [5] (5 μl 3% RTKi intravitreal at day 7), the “reduction of median CNV area at 14 days compared to CNV present at 7 days post-laser” value is on record as 41.0%. Also, in series [5] (single intravitreal injection), the “effect on existing laser-induced CNV (in words, FIG. 4)” value was “induces regression of existing laser-induced choroidal neovascularization (CNV)”. In [6], the “regression of existing CNV (in words)” value is given as “did not show a significant regression of existing CNV”. Besides, the “RVP in non-diabetic rats (in words)” value in [7] (NDM treated at 5 mg/kg/d oral gavage) was “unchanged”. For the same molecule, in series [7] (oral gavage, DM rats), the “Blood glucose levels and body weights, DM control versus DM treatment groups” value is reported as “not different”. Further, the “systemic or ERG side effects” value in series [7] (oral, NDM and DM groups) is on record as “no observed systemic or ERG side effects”. In addition, the tolerability result in [7] (oral, NDM and DM groups) is recorded as “well tolerated”.

For `CC(C)NCC(O)COc1ccc(CCOCC2CC2)cc1` (centres unmarked) [betaxolol], the “effect on vision (in words)” value in the series with diabetic macular edema is given as “stabilized vision”.

B1: ranibizumab (antibody, chains of the INN, looked up, V domains shown)
VH: EVQLVESGGGLVQPGGSLRLSCAASGYDFTHYGMNWVRQAPGKGLEWVGWINTYTGEPTYAADFKRRFTFSLDTSKSTAYLQMNSLRAEDTAVYYCAKYPYYYGTSHWYFDVWGQGTLVTVSS
VL: DIQLTQSPSSLSASVGDRVTITCSASQDISNYLNWYQQKPGKAPKVLIYFTSSLHSGVPSRFSGSGSGTDFTLTISSLQPEDFATYYCQQYSTVPWTFGQGTKVEIK
modifications: Fab
In the case of B1, the “patients with improved visual acuity” value with exudative AMD is 35-40%.
